According to patent publication US12534439B2, “Xanthohumol derivatives and methods for making and using” (Oregon State University, priority 2021, dated 2026):

Tests used:
HFD-fed C57BL/6J mice = assay: Follow-up study: XP given after 4 weeks of HFD pre-conditioning (Example 8); format: in vivo; conditions: for Decrease in weight gain, average: between weeks 9 and 12, versus HFD without compound
From the text: This example concerns the effects of administering 4-(5-(4-hydroxyphenyl)-1-methyl-1H-pyrazol-3-yl)-5-methoxy-2-(3-methylbut-2-en-1-yl)benzene-1,3-diol to mice after a pre-conditioning phase of 4 weeks during which animals were fed a high-fat diet (HFD) or a low-fat diet (LFD). Forty 9-week old wild-type (WT) male C57BL/6J mice were obtained from Jackson Laboratory (Bar Harbor, ME, USA). The mice were housed in ventilated cages under a 12-12-hr light-dark cycle. Of the 40 mice, 32 were fed a HFD (Dyets Inc., Bethlehem, PA, USA) containing 60%, 20% and 20% total calories from fat, carbohydrate and protein, respectively. The remaining 8 mice were fed a LFD (Dyets Inc., Bethlehem, PA, USA), containing 11%, 70% and 19% total calories from fat, carbohydrate and protein, respectively. XP was first dissolved in a mixture of oleic acid:propylene glycol:Tween 80 (0.9:1:1 by weight) before the solution was mixed into the HFD at a concentration of 0.066% to reach a dose of 60 mg/kg body weight/day. After 4 weeks of HFD feeding, the XP-containing HFD was given to 16 of the 32 HFD-pretreated mice for 8 weeks. Sixteen mice in HFD-pretreatment group received a HFD control diet that contained an identical amount of the mixture of oleic acid:propylene glycol:Tween 80 (0.9:1:1 by weight). The LFD-fed mice were continued on the LFD diet. Food intake and body weights were recorded weekly. The mice were euthanized at week 12.

C2Cl2 cells [1] = assay: MTT cell viability assay in C2Cl2 cells; format: cell-based, murine; conditions: 24 hours
Protocol: (§1) To assess the toxicity of 4-(5-(4-hydroxyphenyl)-1-methyl-1h-pyrazol-3-yl)-5-methoxy-2-(3-methylbut-2-en-1-yl)benzene-1,3-diol (XP), in vitro cell viability assays were performed on several cell lines. HepG2, 3T3L1 and C2Cl2 cells were exposed to XP and cell viability was assessed using an MTT assay. At concentrations lower than 50 μM, XP had no effect on the viability of the human liver cancer cell lines HepG2 and murine myoblast cell lines C2Cl2 with respect to the control treatment (FIGS. 11A-11B). […] This establishes that XP is safe to use in vivo at dosages similar to xanthohumol.
Cell Viability Assays. Cells were seeded in 96-well plates 24 hours prior to adding the compound. HepG2 cells were seeded at a density of 5×10^4 cells/mL and C2Cl2 at 1×10^4 cells/mL in order to reach 80% confluency at the beginning of the experiment. After 24 hours, the culture medium was replaced with fresh medium containing various concentrations ranging between 0 and 200 μM of XP. The cells were incubated in the presence of the compound for 24 hours, at which time, the MTT viability assay was carried as previously described. […] The cells were incubated for 3 hours and then acidified with 100% isopropanol for 15 minutes before absorbance reading at 570 nm on a BioTek Synergy HT plate reader.

HepG2 cells [2] = assay: MTT cell viability assay in HepG2 cells; format: cell-based, human; conditions: 24 hours
Protocol: as §1
Cell Viability Assays. Cells were seeded in 96-well plates 24 hours prior to adding the compound. HepG2 cells were seeded at a density of 5×10^4 cells/mL and C2Cl2 at 1×10^4 cells/mL in order to reach 80% confluency at the beginning of the experiment. After 24 hours, the culture medium was replaced with fresh medium containing various concentrations ranging between 0 and 200 μM of XP. The cells were incubated in the presence of the compound for 24 hours, at which time, the MTT viability assay was carried as previously described. MTT was dissolved at 0.5 mg/mL in serum-free Dulbecco's modified Eagle's medium, filter-sterilized and 100 μL was added to the cells. The cells were incubated for 3 hours and then acidified with 100% isopropanol for 15 minutes before absorbance reading at 570 nm on a BioTek Synergy HT plate reader.

C2Cl2 cells [3] = conditions: cited from earlier work
HepG2 cells [4] = conditions: cited from earlier work
[5] = listed as 4-(5-(4-hydroxyphenyl)-1-methyl-1h-pyrazol-3-yl)-5-methoxy-2-(3-methylbut-2-en-1)
[6] = listed as 4-(5-(4-hydroxyphenyl)-1-methyl-1H-pyrazol-3-yl)-5-methoxy-2-(3-methylbut-2-en-1)

Structure (SMILES) | Weight gain versus control HFD-fed mice (HFD-fed C57BL/6J mice; 60 mg/kg body weight/day in HFD for 8 weeks after 4 weeks HFD) | Decrease in weight gain, average (HFD-fed C57BL/6J mice) | Decrease in weight gain, average (HFD-fed C57BL/6J mice; [5]) [%] | Food intake versus control (HFD-fed C57BL/6J mice; mouse, in vivo) | Concentration without effect on cell viability (C2Cl2 cells [1]) | Concentration without effect on cell viability (C2Cl2 cells [1]; [6]) | Concentration without effect on cell viability (HepG2 cells [2]) | Concentration without effect on cell viability (HepG2 cells [2]; [6]) | Concentration without effect on cell viability (HepG2 cells [2]; [5]) [nM] | Cytotoxic concentration (C2Cl2 cells [3]) | Cytotoxic concentration (HepG2 cells [4])
COc1cc(O)c(CC=C(C)C)c(O)c1-c1cc(-c2ccc(O)cc2)n(C)n1 [XP, 4-(5-(4-hydroxyphenyl)-1-methyl-1H-pyrazol-3-yl)-5-methoxy-2-(3-methylbut-2-en-1-yl)benzene-1,3-diol] | gained significantly less weight | about 5% | 5 | no difference | lower than 50 μM | up to 25 μM | lower than 50 μM | up to 25 μM | 1000 to 50000 |  | 
COc1cc(O)c(CC=C(C)C)c(O)c1C(=O)/C=C/c1ccc(O)cc1 [XN, xanthohumol] |  |  |  |  |  |  |  |  |  | above 25 μM | above 25 μM
